Laboratory results reported in ChEMBL document CHEMBL1764984 (J Med Chem, 2011).
Values after ≈ are worked out from the molar mass of the structure shown.

Key:
[1] = target: T1, Epithelial discoidin domain-containing receptor 1 (Homo sapiens, UniProt Q08345); test: Inhibition of DDR1 at 10 uM
[2] = target: T2, Ribosomal protein S6 kinase alpha-3 (Homo sapiens, UniProt P51812); test: Inhibition of RSK2 at 10 uM
[3] = target: Mitogen-activated protein kinase 11 (Homo sapiens, UniProt Q15759); test: Inhibition of P38beta at 10 uM
[4] = Clearance in cynomolgus monkey at 5 mg/kg, iv; type: ADME, organism-based, Macaca fascicularis; parameters: dose 5 mg/kg, route intravenous; details: in vivo
[5] = Volume of distribution at steady state in Hanover-Wistar rat at 5 mg/kg, iv; type: ADME, organism-based; parameters: dose 5 mg/kg, route intravenous; details: in vivo, read-out: Vdss
Rattus norvegicus [6] = test: Analgesic activity in po dosed rat inflammatory yeast hyperalgesia model assessed as increase in tolerance to pressure; type: functional, organism-based
[7] = Oral bioavailability in Beagle dog at 5 mg/kg; type: ADME, organism-based, Canis lupus familiaris; details: in vivo
[8] = Tmax in Beagle dog at 5 mg/kg, po; type: ADME, organism-based, Canis lupus familiaris; parameters: dose 5 mg/kg, route oral; details: in vivo
Cytochrome P450 2C9 = Cytochrome P450 2C9 (Homo sapiens, UniProt P11712); test: Inhibition of human CYP2C9; type: ADME
[9] = AUC (0 to last) in Hanover-Wistar rat at 5 mg/kg, po after 24 hrs; type: ADME, organism-based; parameters: dose 5 mg/kg, route oral, time 0 - last; details: plasma
[10] = target: Serine/threonine-protein kinase 36 (Homo sapiens) (UniProt Q9NRP7); details: 10 uM
Description: Inhibition of STK36 at 10 uM

[11] = Aqueous solubility of the compound in phosphate buffer at pH 6.5; type: physicochemical
[12] = Permeability of the compound from apical to basolateral side of human Caco2 cells at 10 uM after 21 days; type: ADME, cell-based; details: Caco-2, read-out: permeability
[13] = target: T1, Epithelial discoidin domain-containing receptor 1; test: Inhibition of DDR1
[14] = Oral bioavailability in cynomolgus monkey at 5 mg/kg; type: ADME, organism-based, Macaca fascicularis; details: in vivo
[15] = Volume of distribution at steady state in Beagle dog at 5 mg/kg, iv; type: ADME, organism-based, Canis lupus familiaris; parameters: dose 5 mg/kg, route intravenous; details: in vivo, read-out: Vdss
[16] = AUC (0 to last) in cynomolgus monkey at 5 mg/kg, po after 72 hrs; type: ADME, organism-based, Macaca fascicularis; parameters: dose 5 mg/kg, route oral, time 0 - last; details: plasma
[17] = target: Mitogen-activated protein kinase 10 (Homo sapiens, UniProt P53779); details: 10 uM
Description: Inhibition of JNK3 at 10 uM

[18] = Cmax in Hanover-Wistar rat at 5 mg/kg, po; type: ADME, organism-based; parameters: dose 5 mg/kg, route oral; details: in vivo
[19] = target: Mitogen-activated protein kinase 8 (Homo sapiens) (UniProt P45983); test: Inhibition of JNK1 at 10 uM
[20] = Clearance in Hanover-Wistar rat at 5 mg/kg, iv; type: ADME, organism-based; parameters: dose 5 mg/kg, route intravenous; details: in vivo
[21] = target: T2, Ribosomal protein S6 kinase alpha-3; test: Inhibition of RSK2
[22] = Oral bioavailability in Hanover-Wistar rat at 5 mg/kg; type: ADME, organism-based; details: in vivo
[23] = target: Casein kinase I isoform epsilon (Homo sapiens, UniProt P49674); details: 10 uM
Description: Inhibition of CSNK1epsilon at 10 uM

Rattus norvegicus [24] = test: Inhibition of TNF-alpha-induced IL-6 production in po dosed rat plasma administered 30 mins before TNFalpha challenge measured after 2 hrs by ELISA; type: functional, organism-based
Rattus norvegicus [25] = test: Inhibition of LPS-induced IL-6 production in po dosed rat serum administered 30 mins before LPS challenge measured after […] by ELISA; type: functional, organism-based
[26] = Half life in Beagle dog at 5 mg/kg, po; type: ADME, organism-based, Canis lupus familiaris; parameters: dose 5 mg/kg, route oral; details: in vivo
[27] = Plasma protein binding in cynomolgus monkey by untrafiltration method; type: ADME, cell-free, Macaca fascicularis; details: read-out: PPB (converted)
[28] = Clearance in Beagle dog at 5 mg/kg, iv; type: ADME, organism-based, Canis lupus familiaris; parameters: dose 5 mg/kg, route intravenous; details: in vivo
[29] = Tmax in cynomolgus monkey at 5 mg/kg, po; type: ADME, organism-based, Macaca fascicularis; parameters: dose 5 mg/kg, route oral; details: in vivo
[30] = Cmax in cynomolgus monkey at 5 mg/kg, po; type: ADME, organism-based, Macaca fascicularis; parameters: dose 5 mg/kg, route oral; details: in vivo
Cytochrome P450 2D6 = Cytochrome P450 2D6 (Homo sapiens, UniProt P10635); test: Inhibition of human CYP2D6; type: ADME
[31] = Plasma protein binding in Hanover-Wistar rat by untrafiltration method; type: ADME, cell-free; details: read-out: PPB (converted)
[32] = target: T3, Atypical kinase COQ8A, mitochondrial (Homo sapiens, UniProt Q8NI60); test: Inhibition of ADCK3
Target sequence in this assay (Q8NI60 whole entry): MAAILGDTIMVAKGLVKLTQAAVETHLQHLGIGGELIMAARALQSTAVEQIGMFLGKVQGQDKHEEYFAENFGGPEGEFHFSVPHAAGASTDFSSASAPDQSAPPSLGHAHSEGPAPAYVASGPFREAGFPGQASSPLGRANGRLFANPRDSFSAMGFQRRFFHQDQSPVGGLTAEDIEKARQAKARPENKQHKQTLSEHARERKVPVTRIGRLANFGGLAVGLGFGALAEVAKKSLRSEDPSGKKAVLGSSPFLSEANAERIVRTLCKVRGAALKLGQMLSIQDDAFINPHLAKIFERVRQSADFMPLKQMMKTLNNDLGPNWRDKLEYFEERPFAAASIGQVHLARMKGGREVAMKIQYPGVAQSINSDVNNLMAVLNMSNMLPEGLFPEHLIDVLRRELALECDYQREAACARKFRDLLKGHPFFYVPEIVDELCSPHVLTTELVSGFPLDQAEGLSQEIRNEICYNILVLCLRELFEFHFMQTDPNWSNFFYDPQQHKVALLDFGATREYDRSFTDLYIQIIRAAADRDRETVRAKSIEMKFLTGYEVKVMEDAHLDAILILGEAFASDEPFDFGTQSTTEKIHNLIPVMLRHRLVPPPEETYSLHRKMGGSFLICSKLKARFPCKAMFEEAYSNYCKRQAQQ

[33] = target: T3, Atypical kinase COQ8A, mitochondrial; details: 10 uM
Description: Inhibition of ADCK3 at 10 uM

[34] = target: Cyclin-G-associated kinase (Homo sapiens) (UniProt O14976); test: Inhibition of GAK at 10 uM
Rattus norvegicus [35] = test: Inhibition of LPS-induced TNFalpha production in rat serum at 3 mg/kg, po administered 30 mins before LPS challenge measured after […] by ELISA; type: functional
[36] = target: Serine/threonine-protein kinase NLK (Homo sapiens) (UniProt Q9UBE8); test: Inhibition of NLK at 10 uM
[37] = target: Serine/threonine-protein kinase 36 (Homo sapiens, UniProt Q9NRP7); test: Inhibition of STK36
Cytochrome P450 1A2 = Cytochrome P450 1A2 (Homo sapiens, UniProt P05177); test: Inhibition of human CYP1A2; type: ADME
[38] = Cmax in Beagle dog at 5 mg/kg, po; type: ADME, organism-based, Canis lupus familiaris; parameters: dose 5 mg/kg, route oral; details: in vivo
Cytochrome P450 3A4 = Cytochrome P450 3A4 (Homo sapiens, UniProt P08684); test: Inhibition of human CYP3A4; type: ADME
[39] = target: Cyclin-G-associated kinase (Homo sapiens, UniProt O14976); test: Inhibition of GAK
[40] = Permeability of the compound from basolateral to apical side of human Caco2 cells at 10 uM after 21 days; type: ADME, cell-based; details: Caco-2, read-out: permeability
[41] = Half life in Hanover-Wistar rat at 5 mg/kg, po; type: ADME, organism-based; parameters: dose 5 mg/kg, route oral; details: in vivo
[42] = Tmax in Hanover-Wistar rat at 5 mg/kg, po; type: ADME, organism-based; parameters: dose 5 mg/kg, route oral; details: in vivo
[43] = target: Ribosomal protein S6 kinase alpha-4 (Homo sapiens, UniProt O75676); test: Inhibition of RSK4 at 10 uM
[44] = AUC (0 to last) in Beagle dog at 5 mg/kg, po; type: ADME, organism-based, Canis lupus familiaris; parameters: dose 5 mg/kg, route oral, time 0 - last; details: plasma
Cytochrome P450 2C19 = Cytochrome P450 2C19 (Homo sapiens, UniProt P33261); test: Inhibition of human CYP2C19; type: ADME
[45] = target: Mitogen-activated protein kinase 9 (Homo sapiens) (UniProt P45984); test: Inhibition of JNK2 at 10 uM
[46] = Half life in cynomolgus monkey at 5 mg/kg, po; type: ADME, organism-based, Macaca fascicularis; parameters: dose 5 mg/kg, route oral; details: in vivo
[47] = Volume of distribution at steady state in cynomolgus monkey at 5 mg/kg, iv; type: ADME, organism-based, Macaca fascicularis; parameters: dose 5 mg/kg, route intravenous; details: in vivo, read-out: Vdss

T1 sequence (Q08345 whole entry, the tested form may be a part): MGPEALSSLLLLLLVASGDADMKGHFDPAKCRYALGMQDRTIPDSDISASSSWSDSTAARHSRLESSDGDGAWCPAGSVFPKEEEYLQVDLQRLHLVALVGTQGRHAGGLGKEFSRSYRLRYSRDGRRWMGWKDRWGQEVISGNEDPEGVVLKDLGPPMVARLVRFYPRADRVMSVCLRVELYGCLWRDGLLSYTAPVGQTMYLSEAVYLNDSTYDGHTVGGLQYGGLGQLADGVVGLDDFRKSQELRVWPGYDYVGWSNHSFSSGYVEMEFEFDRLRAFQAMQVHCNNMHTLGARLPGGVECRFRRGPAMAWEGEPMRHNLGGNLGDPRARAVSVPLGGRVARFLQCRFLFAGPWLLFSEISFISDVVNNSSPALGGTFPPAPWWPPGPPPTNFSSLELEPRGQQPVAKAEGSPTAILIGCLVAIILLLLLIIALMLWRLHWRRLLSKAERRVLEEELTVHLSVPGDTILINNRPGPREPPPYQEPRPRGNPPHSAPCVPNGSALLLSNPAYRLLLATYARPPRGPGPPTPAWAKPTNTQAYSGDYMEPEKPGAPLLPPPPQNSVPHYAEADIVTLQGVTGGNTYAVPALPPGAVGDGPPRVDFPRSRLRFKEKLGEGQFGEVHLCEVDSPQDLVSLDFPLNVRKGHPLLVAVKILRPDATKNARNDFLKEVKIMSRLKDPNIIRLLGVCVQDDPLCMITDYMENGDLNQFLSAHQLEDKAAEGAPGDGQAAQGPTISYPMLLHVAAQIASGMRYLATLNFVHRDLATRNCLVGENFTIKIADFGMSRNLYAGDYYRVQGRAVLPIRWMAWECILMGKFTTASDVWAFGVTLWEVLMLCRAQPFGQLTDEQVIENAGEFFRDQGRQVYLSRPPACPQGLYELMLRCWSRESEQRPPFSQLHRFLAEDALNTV
T2 sequence (P51812 whole entry): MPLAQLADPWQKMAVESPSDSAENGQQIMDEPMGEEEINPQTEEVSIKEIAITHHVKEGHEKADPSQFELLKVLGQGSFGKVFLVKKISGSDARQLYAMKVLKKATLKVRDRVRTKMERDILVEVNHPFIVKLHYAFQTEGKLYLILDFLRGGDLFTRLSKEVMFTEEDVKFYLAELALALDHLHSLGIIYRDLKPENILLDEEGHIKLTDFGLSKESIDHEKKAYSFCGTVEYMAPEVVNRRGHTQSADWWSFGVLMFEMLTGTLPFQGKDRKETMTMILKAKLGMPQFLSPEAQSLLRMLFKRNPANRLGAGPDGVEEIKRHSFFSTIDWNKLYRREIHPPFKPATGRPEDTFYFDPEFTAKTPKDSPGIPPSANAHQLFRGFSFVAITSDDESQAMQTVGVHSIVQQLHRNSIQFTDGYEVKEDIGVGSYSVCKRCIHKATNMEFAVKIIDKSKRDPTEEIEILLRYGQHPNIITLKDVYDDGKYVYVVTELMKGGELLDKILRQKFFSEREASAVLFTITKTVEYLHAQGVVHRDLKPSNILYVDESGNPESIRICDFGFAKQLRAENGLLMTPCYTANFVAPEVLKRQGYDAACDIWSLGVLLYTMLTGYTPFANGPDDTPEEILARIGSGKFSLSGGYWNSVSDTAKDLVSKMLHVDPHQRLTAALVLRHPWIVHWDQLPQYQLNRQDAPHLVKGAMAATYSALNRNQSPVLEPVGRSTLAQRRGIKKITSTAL
Sequence of Casein kinase I isoform epsilon (P49674 whole entry, looked up, canonical isoform): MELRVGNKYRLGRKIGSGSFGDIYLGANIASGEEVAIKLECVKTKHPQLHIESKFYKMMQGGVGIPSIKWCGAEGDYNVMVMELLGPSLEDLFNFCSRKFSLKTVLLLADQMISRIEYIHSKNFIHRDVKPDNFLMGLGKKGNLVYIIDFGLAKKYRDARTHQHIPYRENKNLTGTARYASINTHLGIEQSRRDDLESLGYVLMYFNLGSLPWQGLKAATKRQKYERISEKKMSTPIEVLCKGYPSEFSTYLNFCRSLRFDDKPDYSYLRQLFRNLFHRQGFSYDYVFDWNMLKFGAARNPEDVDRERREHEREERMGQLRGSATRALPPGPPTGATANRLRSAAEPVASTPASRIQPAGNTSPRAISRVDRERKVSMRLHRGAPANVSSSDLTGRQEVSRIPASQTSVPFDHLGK
Sequence of Mitogen-activated protein kinase 11 (Q15759 whole entry): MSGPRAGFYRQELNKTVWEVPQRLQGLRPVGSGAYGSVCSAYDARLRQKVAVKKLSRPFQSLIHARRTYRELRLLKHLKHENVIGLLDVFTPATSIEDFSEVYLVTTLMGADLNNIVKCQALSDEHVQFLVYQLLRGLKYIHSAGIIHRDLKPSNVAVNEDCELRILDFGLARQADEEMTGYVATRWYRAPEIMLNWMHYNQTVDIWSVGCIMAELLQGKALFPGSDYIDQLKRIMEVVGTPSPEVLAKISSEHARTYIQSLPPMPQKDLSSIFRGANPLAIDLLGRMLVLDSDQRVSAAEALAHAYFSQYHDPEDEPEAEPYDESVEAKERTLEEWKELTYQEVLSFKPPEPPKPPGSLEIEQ
Sequence of Cytochrome P450 2C9 (P11712 whole entry): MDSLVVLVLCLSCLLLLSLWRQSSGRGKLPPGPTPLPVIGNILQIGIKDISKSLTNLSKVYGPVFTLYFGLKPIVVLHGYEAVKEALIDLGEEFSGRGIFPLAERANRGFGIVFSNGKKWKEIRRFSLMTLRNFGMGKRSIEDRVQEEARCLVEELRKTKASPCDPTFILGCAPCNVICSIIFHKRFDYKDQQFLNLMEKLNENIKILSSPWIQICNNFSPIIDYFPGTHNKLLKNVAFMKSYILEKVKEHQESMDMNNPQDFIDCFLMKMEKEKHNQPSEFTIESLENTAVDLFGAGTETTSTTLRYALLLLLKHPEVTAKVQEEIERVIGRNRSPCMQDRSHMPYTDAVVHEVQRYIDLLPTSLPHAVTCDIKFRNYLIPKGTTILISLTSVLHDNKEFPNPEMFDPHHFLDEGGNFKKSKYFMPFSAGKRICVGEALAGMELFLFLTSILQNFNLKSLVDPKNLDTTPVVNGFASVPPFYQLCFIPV
Sequence of Mitogen-activated protein kinase 10 (P53779 whole entry): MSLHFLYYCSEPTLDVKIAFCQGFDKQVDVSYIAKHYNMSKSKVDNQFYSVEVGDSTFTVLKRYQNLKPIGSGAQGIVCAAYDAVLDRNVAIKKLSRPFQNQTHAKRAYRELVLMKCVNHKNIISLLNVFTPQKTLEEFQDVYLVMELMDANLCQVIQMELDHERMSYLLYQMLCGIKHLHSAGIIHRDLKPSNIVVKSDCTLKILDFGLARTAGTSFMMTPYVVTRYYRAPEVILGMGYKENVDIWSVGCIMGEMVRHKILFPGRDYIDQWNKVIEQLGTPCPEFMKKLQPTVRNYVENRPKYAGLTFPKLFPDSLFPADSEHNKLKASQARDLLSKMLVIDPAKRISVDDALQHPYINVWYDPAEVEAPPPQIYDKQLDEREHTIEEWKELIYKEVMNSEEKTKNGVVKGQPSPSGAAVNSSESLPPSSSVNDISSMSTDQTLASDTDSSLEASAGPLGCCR
Sequence of Serine/threonine-protein kinase NLK (Homo sapiens) (Q9UBE8 whole entry): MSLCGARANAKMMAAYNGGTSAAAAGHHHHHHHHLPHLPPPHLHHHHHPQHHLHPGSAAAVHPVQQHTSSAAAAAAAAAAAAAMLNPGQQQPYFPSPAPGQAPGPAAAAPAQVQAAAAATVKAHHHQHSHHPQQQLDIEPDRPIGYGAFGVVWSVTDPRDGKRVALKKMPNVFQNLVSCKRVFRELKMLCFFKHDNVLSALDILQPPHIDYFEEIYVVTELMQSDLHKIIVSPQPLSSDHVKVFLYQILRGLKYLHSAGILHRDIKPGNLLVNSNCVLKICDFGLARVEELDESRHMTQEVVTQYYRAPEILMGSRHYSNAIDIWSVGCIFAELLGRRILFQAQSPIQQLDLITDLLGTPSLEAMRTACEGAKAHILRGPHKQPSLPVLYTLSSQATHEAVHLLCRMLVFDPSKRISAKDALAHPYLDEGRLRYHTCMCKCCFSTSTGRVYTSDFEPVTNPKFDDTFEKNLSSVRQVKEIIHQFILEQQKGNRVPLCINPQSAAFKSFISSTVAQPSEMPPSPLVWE
Sequence of Mitogen-activated protein kinase 9 (Homo sapiens) (P45984 whole entry, looked up): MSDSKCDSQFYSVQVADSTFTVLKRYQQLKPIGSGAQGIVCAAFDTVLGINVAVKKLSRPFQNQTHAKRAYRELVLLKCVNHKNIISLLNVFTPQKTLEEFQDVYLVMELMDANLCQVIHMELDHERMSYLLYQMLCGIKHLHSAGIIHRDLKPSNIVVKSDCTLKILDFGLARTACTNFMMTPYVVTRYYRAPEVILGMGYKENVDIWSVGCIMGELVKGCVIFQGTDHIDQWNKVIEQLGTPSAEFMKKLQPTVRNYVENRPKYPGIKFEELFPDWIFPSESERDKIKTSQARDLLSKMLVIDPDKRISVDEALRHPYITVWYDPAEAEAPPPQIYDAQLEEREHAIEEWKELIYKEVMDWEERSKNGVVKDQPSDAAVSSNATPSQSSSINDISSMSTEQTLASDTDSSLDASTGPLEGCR

## Cn1c(=O)c(Oc2ccc(F)cc2F)cc2cnc(NC(CCO)CCO)nc21 [PAMAPIMOD]
[1]
  inhibition: > 85%
[2]
  inhibition: > 85%
[3]
  inhibition: > 85%
[4]
  clearance: 10.8 mL/min/kg
[5]
  Vd: 3.56 L/kg
Rattus norvegicus [6]
  Activity: Dose-dependent effect
  EC50: 4300 nM
Rattus norvegicus [6]; po
  ED50: 20.4 mg/kg
[7]
  bioavailability: 78.2%
[8]
  Tmax: 0.67 h
Cytochrome P450 2C9
  IC50: > 29000 nM
[9]
  AUC(0-t) at 24 h: 3130 ng·h/mL
[10]
  inhibition: > 85%
[11]
  solubility: 170 µg/mL (≈ 418 µM)
[12]
  Papp A→B at 10 µM: 2.74 ×10⁻⁶ cm/s
[13]
  Kd: > 1000 nM
[14]
  bioavailability: > 100%
[15]
  Vd: 12.7 L/kg
[16]
  AUC(0-t) at 72 h: 9410 ng·h/mL
[17]
  inhibition: > 85%
[18]
  Cmax: 1340 ng/mL
[19]
  inhibition: > 85%
[20]
  clearance: 21 mL/min/kg
[21]
  Kd: 300 nM
[22]
  bioavailability: 80.1%
[23]
  inhibition: > 85%
Rattus norvegicus [24]
  EC50: 270 nM
Rattus norvegicus [24]; po
  ED50: 1.1 mg/kg
Rattus norvegicus [25]
  EC50: 50 nM
Rattus norvegicus [25]; po
  ED50: 0.1 mg/kg
[26]
  half-life: 9.18 h
[27]
  fraction unbound: 0.146
[28]
  clearance: 12.5 mL/min/kg
[29]
  Tmax: 1.5 h
[30]
  Cmax: 1860 ng/mL
Cytochrome P450 2D6
  IC50: > 29000 nM
[31]
  fraction unbound: 0.171
[32]
  Kd: > 1000 nM
[33]
  inhibition: > 85%
[34]
  inhibition: > 85%
Rattus norvegicus [35]
  inhibition in vivo at 3 mg/kg: 77%
[36]
  inhibition: > 85%
[37]
  Kd: > 1000 nM
Cytochrome P450 1A2
  IC50: > 29000 nM
[38]
  Cmax: 1380 ng/mL
Cytochrome P450 3A4
  IC50: > 29000 nM
[39]
  Kd: > 1000 nM
[40]
  Papp B→A at 10 µM: 22.6 ×10⁻⁶ cm/s
[41]
  half-life: 4.04 h
[42]
  Tmax: 0.5 h
[43]
  inhibition: > 85%
[44]
  AUC(0-t): 5220 ng·h/mL
Cytochrome P450 2C19
  IC50: > 29000 nM
[45]
  inhibition: > 85%
[46]
  half-life: 13.8 h
[47]
  Vd: 20.6 L/kg
